Reference: patent publication US12491170B2, “Stable treprostinil prodrugs” (United Therapeutics Corporation, priority 2020, dated 2025)
Like-named read-outs stand apart in the source and are kept apart here.

Experiments:
[1] = Stability in liver microsomes, rat
[2] = Stability in liver microsomes, human
[3] = Stability in liver microsomes, dog
[4] = molecular target: prostaglandin E2 (PGE2) receptor 2 (EP2) (Homo sapiens, UniProt P43116); assay: EP2 receptor cAMP agonist assay (HEK293T cells); type: cell-based; parameters: key to EC50 Fold Different from Treprostinil, EP2 Receptor: NC = too inactive to realistically calculate; conditions: for EP2 Relative to Tre: Table 22, relative to treprostinil EC50 values, * partial agonists or ambiguous dose-response curves
Procedure: Cyclic AMP assay kit: Multiscreen™ TR-FRET cAMP 1.0 No Wash Assay Kit (Multispan, Inc.)
(§1) Cells were thawed from frozen cells and resuspended in assay buffer at desired concentrations. cAMP or Calcium assays were performed according to the manufacturer's protocol using Multiscreen™ TR-FRET cAMP 1.0 No Wash Assay Kit or Multiscreen™ Calcium 1.0 No Wash Kit.
Gas Cyclic AMP (cAMP) Assay: In agonist mode testing, cells were seeded in a 384-well plate at an appropriate density and then were treated with compounds and incubated at 37° C. for 20 minutes. The reaction was terminated by […] trFluor™ Eu-labeled cAMP and trFluor™ 650-labeled anti-cAMP antibody in lysis buffer. […] All testing wells contained 0.1% DMSO in the final concentrations.
Data in graphs are represented in Mean±SD. Dose-dependent responses were fitted with sigmoidal dose-response curves allowing variable slopes using GraphPad Prism version 6 (Graphpad Prism).
These studies used cell lines overexpressing either human IP, EP2 or DP1, or EP1 receptors, and following incubation with varying concentrations of compounds, cAMP levels were measured using Fluorescence Resonance Energy Transfer (FRET).

PGE2 receptor 1 (EP1) = molecular target: T1, PGE2 receptor 1 (EP1) (Homo sapiens, UniProt P34995); assay: EP1 receptor calcium agonist assay (HEK293T cells); type: cell-based; parameters: key to EC50 Fold Different from Treprostinil, EP1 Receptor: NC = too inactive to realistically calculate; conditions: for EP1 Relative to Tre: Table 22, relative to treprostinil EC50 values, * partial agonists or ambiguous dose-response curves
T1 sequence (P34995 1-402): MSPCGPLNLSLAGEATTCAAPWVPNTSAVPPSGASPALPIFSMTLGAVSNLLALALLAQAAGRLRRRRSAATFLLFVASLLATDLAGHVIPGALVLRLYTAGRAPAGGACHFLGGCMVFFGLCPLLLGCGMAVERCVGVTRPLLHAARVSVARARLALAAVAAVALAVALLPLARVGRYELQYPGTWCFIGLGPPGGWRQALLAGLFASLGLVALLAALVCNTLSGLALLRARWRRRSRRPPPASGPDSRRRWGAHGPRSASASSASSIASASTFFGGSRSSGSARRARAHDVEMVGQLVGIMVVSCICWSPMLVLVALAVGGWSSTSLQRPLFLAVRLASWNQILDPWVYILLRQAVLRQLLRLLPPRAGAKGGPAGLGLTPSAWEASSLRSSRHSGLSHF
Procedure: Calcium assay kit: Multiscreen™ Calcium 1.0 No Wash Kit (Multispan, Inc., Cat #MSCA01-1)
• EP1 Calcium and DP1 cAMP Assays: HBSS plus 20 mM HEPES • EP2 and IP1 cAMP Assays: 1 mM IBMX in HBSS plus 20 mM HEPES Instruments: FlexStation III (Molecular Devices) and FLIPR 384 (Molecular Devices)
as §1
Calcium Assay: Cells were seeded in a 384-well plate at an appropriate density. The calcium assay was conducted according to the manufacturer's protocols (Multiscreen Calcium 1.0 No Wash Assay Kit). The calcium dye loading buffer was added to the cells and incubated for 1 hour at 37° C. For agonist mode, cells were injected with Iloprost control agonist or test compound by FLIPR and calcium mobilization was monitored for 180 seconds with compound injected into the wells at the 19th second. Fluorescent emissions were read at 525 nm with excitation at 490 nm in a FLIPR 384 instrument (Molecular Devices).
Calcium Assay: Calcium assay results are expressed as “RFU” as defined in figure below. Data are represented in Mean±SEM. Dose-response curves were fitted using “Sigmoidal dose-response (variable slope)” function in GraphPad Prism 6. EC50 values were calculated based on the fitted curves.
Prostaglandin receptor activity assessments with treprostinil and treprostinil analogues have been conducted, and a historical, positive control agonist for these receptors, iloprost (for IP, EP2 and EP1) or PGD2 (for DP1), was also included. These studies used cell lines overexpressing either human IP, EP2 or DP1, or EP1 receptors, and following incubation with varying concentrations of compounds, cAMP levels were measured using Fluorescence Resonance Energy Transfer (FRET). The 665/620 (acceptor/donor emission signals) ratio is inversely proportional to the concentration of cAMP.

[5] = dog
[6] = Table 18, * partial agonists or odd dose-response curves

prostaglandin E2 (PGE2) receptor 2 (EP2), sequence (P43116 whole entry): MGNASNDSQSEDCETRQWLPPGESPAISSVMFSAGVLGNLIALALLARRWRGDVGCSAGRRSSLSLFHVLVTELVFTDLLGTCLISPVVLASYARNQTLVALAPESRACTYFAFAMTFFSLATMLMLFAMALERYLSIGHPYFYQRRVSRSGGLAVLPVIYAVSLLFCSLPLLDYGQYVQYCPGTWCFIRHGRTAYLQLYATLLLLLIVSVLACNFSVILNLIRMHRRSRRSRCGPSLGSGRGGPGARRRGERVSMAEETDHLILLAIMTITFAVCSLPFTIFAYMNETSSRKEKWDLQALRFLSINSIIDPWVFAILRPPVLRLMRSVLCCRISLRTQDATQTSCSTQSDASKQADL

CCCCCC(CCC1C(O)CC2Cc3c(cccc3OCC(=O)O)CC21)OC(C)=O (stereo not drawn) [Prodrug XLIII]
Treprostinil Concentration 0 min [1]: 0.035 µM | Treprostinil Concentration 15 min [1]: 0.0741 µM | Treprostinil Concentration 30 min [1]: 0.111 µM | Treprostinil Concentration 60 min [1]: 0.145 µM | Treprostinil Concentration 120 min [1]: 0.206 µM | AUC Mono (treprostinil formed) ([1]; rat): 8.0 µmol·min/L | Treprostinil Concentration 0 min [2]: 0.883 µM | Treprostinil Concentration 15 min [2]: 0.681 µM | Treprostinil Concentration 30 min [2]: 0.602 µM | Treprostinil Concentration 60 min [2]: 0.513 µM | Treprostinil Concentration 120 min [2]: 0.341 µM | AUC Mono (treprostinil formed) ([2]; human): 32.6 µmol·min/L | Treprostinil Concentration 0 min [3]: 0.964 µM | Treprostinil Concentration 15 min [3]: 0.917 µM | Treprostinil Concentration 30 min [3]: 0.899 µM | Treprostinil Concentration 60 min [3]: 0.932 µM | Treprostinil Concentration 120 min [3]: 0.873 µM | AUC Mono (treprostinil formed) ([3]; dog): 54.7 µmol·min/L | EP2 Relative to Tre [4]: 461x | EP1 Relative to Tre (PGE2 receptor 1 (EP1)): 20x*

CCCCCC(CCC1C(O)CC2Cc3c(cccc3OCC(=O)O)CC21)OC(=O)CC (stereo not drawn) [Prodrug LV]
Treprostinil Concentration 0 min [1]: 0.26 µM | Treprostinil Concentration 15 min [1]: 0.43 µM | Treprostinil Concentration 30 min [1]: 0.525 µM | Treprostinil Concentration 60 min [1]: 0.586 µM | Treprostinil Concentration 120 min [1]: 0.553 µM | AUC Mono (treprostinil formed) ([1]; rat): 30.9 µmol·min/L | Treprostinil Concentration 0 min [2]: 1.17 µM | Treprostinil Concentration 15 min [2]: 1.01 µM | Treprostinil Concentration 30 min [2]: 0.837 µM | Treprostinil Concentration 60 min [2]: 0.736 µM | Treprostinil Concentration 120 min [2]: 0.389 µM | AUC Mono (treprostinil formed) ([2]; human): 44.9 µmol·min/L | Treprostinil Concentration 0 min [3]: 0.971 µM | Treprostinil Concentration 15 min [3]: 0.961 µM | Treprostinil Concentration 30 min [3]: 0.934 µM | Treprostinil Concentration 60 min [3]: 0.915 µM | Treprostinil Concentration 120 min [3]: 0.743 µM | AUC Mono (treprostinil formed) ([3]; dog): 53.3 µmol·min/L | EP2 Relative to Tre [4]: 50x | EP1 Relative to Tre (PGE2 receptor 1 (EP1)): 122x*

CCCCCC(CCC1C(OC(=O)CC)CC2Cc3c(cccc3OCC(=O)O)CC21)OC(=O)CC (stereo not drawn) [Prodrug LXX, treprostinil dipropionate]
Trep Concentration 0 min [1]: 0.336 µM | Trep Concentration 10 min [1]: 0.595 µM | Trep Concentration 20 min [1]: 0.764 µM | Trep Concentration 30 min [1]: 0.653 µM | Trep Concentration 60 min [1]: 0.699 µM | Treprostinil Concentration 0 min [1]: 0.336 µM | Treprostinil Concentration 15 min [1]: 0.595 µM | Treprostinil Concentration 30 min [1]: 0.764 µM | Treprostinil Concentration 60 min [1]: 0.653 µM | Treprostinil Concentration 120 min [1]: 0.699 µM | CLint, calculated (in parentheses) ([1]; microsomes): 0.250 mL/min/mg protein | Half-life, calculated (in parentheses) ([1]; microsomes): 5.53 min | AUC Mono (treprostinil formed) ([1]; rat): 38.8 µmol·min/L | CLint ([1]; rat, microsomes): > 0.139 mL/min/mg protein | Half-life ([1]; rat, microsomes): < 10 min | AUC [5]: 71.85 µmol·min/L | Trep Concentration 0 min [2]: 1.18 µM | Trep Concentration 10 min [2]: 0.903 µM | Trep Concentration 20 min [2]: 0.602 µM | Trep Concentration 30 min [2]: 0.538 µM | Trep Concentration 60 min [2]: 0.381 µM | Treprostinil Concentration 0 min [2]: 1.18 µM | Treprostinil Concentration 15 min [2]: 0.903 µM | Treprostinil Concentration 30 min [2]: 0.602 µM | Treprostinil Concentration 60 min [2]: 0.538 µM | Treprostinil Concentration 120 min [2]: 0.381 µM | AUC ([2]; human): 37.43 µmol·min/L | AUC Mono (treprostinil formed) ([2]; human): 37.4 µmol·min/L | CLint ([2]; human, microsomes): >0.139 mL/min/mg protein | Half-life ([2]; human, microsomes): <10 min | Trep Concentration 0 min [3]: 1.24 µM | Trep Concentration 10 min [3]: 1.26 µM | Trep Concentration 20 min [3]: 1.24 µM | Trep Concentration 30 min [3]: 1.23 µM | Trep Concentration 60 min [3]: 1.07 µM | Treprostinil Concentration 0 min [3]: 1.24 µM | Treprostinil Concentration 15 min [3]: 1.26 µM | Treprostinil Concentration 30 min [3]: 1.24 µM | Treprostinil Concentration 60 min [3]: 1.23 µM | Treprostinil Concentration 120 min [3]: 1.07 µM | AUC Mono (treprostinil formed) ([3]; dog): 71.9 µmol·min/L | CLint ([3]; dog, microsomes): >0.139 mL/min/mg protein | Half-life ([3]; dog, microsomes): <10 min | EC50 Fold Different from Treprostinil, EP2 Receptor [4, 6]: NC | Activity at the EP2 receptor compared to treprostinil ([4]; summary of findings): inactive | EC50 Fold Different from Treprostinil, EP1 Receptor (PGE2 receptor 1 (EP1); [6]): NC

CCCCCC(CCC1C(O)CC2Cc3c(cccc3OCC(=O)O)CC21)OP(=O)(O)O (stereo not drawn) [Prodrug VI]
Treprostinil Concentration 0 min [1]: 0.27 µM | Treprostinil Concentration 15 min [1]: 0.39 µM | Treprostinil Concentration 30 min [1]: 0.46 µM | Treprostinil Concentration 60 min [1]: 0.53 µM | Treprostinil Concentration 120 min [1]: 0.73 µM | AUC Mono (treprostinil formed) ([1]; rat): 31.4 µmol·min/L | Treprostinil Concentration 0 min [2]: 0.02 µM | Treprostinil Concentration 15 min [2]: 0.038 µM | Treprostinil Concentration 30 min [2]: 0.038 µM | Treprostinil Concentration 60 min [2]: 0.03 µM | Treprostinil Concentration 120 min [2]: 0.061 µM | AUC Mono (treprostinil formed) ([2]; human): 2.4 µmol·min/L | Treprostinil Concentration 0 min [3]: 0.21 µM | Treprostinil Concentration 15 min [3]: 0.32 µM | Treprostinil Concentration 30 min [3]: 0.43 µM | Treprostinil Concentration 60 min [3]: 0.48 µM | Treprostinil Concentration 120 min [3]: 0.75 µM | AUC Mono (treprostinil formed) ([3]; dog): 29.4 µmol·min/L | EP2 Relative to Tre [4]: 4x | EP2 Relative to Tre ([4]; listed as Prodrug VI repeat): 9x | EP1 Relative to Tre (PGE2 receptor 1 (EP1)): 5x | EP1 Relative to Tre (PGE2 receptor 1 (EP1); listed as Prodrug VI repeat): 42x
